Data reported in article PMC10709440, “High-throughput ligand profile characterization in novel cell lines expressing seven heterologous insect olfactory receptors for the detection of volatile plant biomarkers” (Scientific Reports, 2023).
Read-outs that look alike come from different tables or passages of the source.

Key:
Drosophila OR13a = molecular target: T1, Drosophila OR13a (Drosophila melanogaster, UniProt Q9VXL0); experiment: Calcium ion fluorescence (GCaMP6) assay, OR13a stable HEK293 cell line; type: cell-based; settings: for OR13a response (VUAA1-normalized) at 1 μM / OR13a response (VUAA1-normalized) at 10 μM / OR13a response (VUAA1-normalized) at 100 μM: OR13a cell line
T1 construct: expressed in transfected cells
T1 sequence (Q9VXL0 1-418): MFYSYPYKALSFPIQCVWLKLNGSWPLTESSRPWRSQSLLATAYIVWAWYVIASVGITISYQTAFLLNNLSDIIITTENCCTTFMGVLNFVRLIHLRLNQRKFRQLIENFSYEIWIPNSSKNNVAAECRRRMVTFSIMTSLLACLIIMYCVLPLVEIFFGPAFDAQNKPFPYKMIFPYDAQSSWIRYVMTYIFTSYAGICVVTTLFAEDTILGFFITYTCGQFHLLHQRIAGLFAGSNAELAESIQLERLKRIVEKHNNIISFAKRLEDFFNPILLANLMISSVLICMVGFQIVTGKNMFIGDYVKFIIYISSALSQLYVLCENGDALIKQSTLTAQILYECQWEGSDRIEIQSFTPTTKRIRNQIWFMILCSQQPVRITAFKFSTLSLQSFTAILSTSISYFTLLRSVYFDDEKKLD
T1 sequence (Q9VNB5 1-486 partner): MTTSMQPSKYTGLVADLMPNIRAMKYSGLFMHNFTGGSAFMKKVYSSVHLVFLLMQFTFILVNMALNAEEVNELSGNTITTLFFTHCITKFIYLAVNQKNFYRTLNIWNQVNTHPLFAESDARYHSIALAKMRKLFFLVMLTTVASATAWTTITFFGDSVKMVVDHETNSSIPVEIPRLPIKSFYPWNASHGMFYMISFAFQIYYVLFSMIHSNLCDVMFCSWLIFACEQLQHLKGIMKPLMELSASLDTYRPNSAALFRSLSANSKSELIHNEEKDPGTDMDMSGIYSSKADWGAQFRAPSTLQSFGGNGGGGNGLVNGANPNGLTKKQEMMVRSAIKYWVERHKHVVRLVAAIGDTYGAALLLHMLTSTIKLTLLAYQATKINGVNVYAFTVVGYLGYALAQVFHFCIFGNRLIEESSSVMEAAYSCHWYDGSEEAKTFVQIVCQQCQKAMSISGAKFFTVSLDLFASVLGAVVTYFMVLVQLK
Protocol: These VUAA1 normalized ∆F values were used to compare the different receptors and ligands.
The concentration-dependent effect of the reference ligands on their cognate cell lines was examined in more detail. Twelve different ligand concentrations were measured on each cell line in an overall 0.01 μM to 100 μM concentration range with 5 repetitions with three technical replicates each time.
Twelve thousand to 18,000 cells were plated into each well of a black wall, transparent bottom 384-well microplate (Greiner) 48 h or 72 h before the measurements and were simultaneously treated with 1 μg/mL doxycycline. […] The plate has 24 columns, thus we could record responses in up to eight different cell lines in each plate. On the day of the experiment, the growth medium was replaced with 20 µL assay buffer/well (140 mM NaCl, 5 mM KCl, 2 mM CaCl2, 1 mM MgCl2, 5 mM HEPES-Na, 20 mM glucose, pH 7.3, 340 mOsm). […] Baseline fluorescence (F0) was recorded for 5 s, after which 7 µL VOC buffer (140 mM NaCl, 5 mM KCl, 2 mM CaCl2, 1 mM MgCl2, 5 mM HEPES-Na, 31 mM glucose, 0.1% DMSO, pH 7.3, 340 mOsm) was injected into each well in one row and the fluorescence response was recorded for an additional 30 s, at a rate of one read/sec. VOC solutions (VOC buffer with 4× concentration of the final measured VOC concentration, 9 µL/well was injected) were measured on the same wells in a second round with the same protocol. Each individual concentration of a specific VOC sample was recorded in three wells for the same cell line on the same microplate. The raw data were exported in xls file format, F0 and FMAX values, and the fluorescence intensity changes (∆F) were calculated in Excel (Microsoft) (Supplementary file Data summary.xlsx) using the following equation: ΔF=FMAX-F0/F0 (see also Fig. 1C). On each plate, we recorded the response of each cell line to 50 µM VUAA1. The average of these ∆F values of each cell line were used to calculate the VUAA1-normalized values for the rest of the plate, by dividing VOC response ∆F values by the average VUAA1 response ∆F value of the corresponding OR cell line. Each VOC-OR combination was measured three times as technical replicates. […] The average of these replicates were used as one ∆F and VUAA1-normalized ∆F in the following analysis.
In the next rows we tested the reference VOCs (or other VOCs known to activate the corresponding cell lines), in order to test if all cell lines are responsive. The remaining rows were used to test VOCs with unknown effect.
The recorded FMAX, F0, ∆F, VUAA1-normalized ∆F values, as well as the OR name, the name of the tested sample, and the final concentration for each well were copied into supplementary file Data summary.xlsx, that was used to summarize all the plates recorded. Here, the averages of the measurements were calculated for each receptor-VOC-concentration combination.

OR85b = tested on: OR85b; design: method as in earlier work; settings: DoOR database value, ref DoOR, cited from earlier work
OR47a = tested on: OR47a; design: method as in earlier work; settings: DoOR database value, ref DoOR, cited from earlier work
OR98a = tested on: OR98a; design: method as in earlier work; settings: DoOR database value, ref DoOR, cited from earlier work
OR49b = tested on: OR49b; design: method as in earlier work; settings: DoOR database value, ref DoOR, cited from earlier work
OR10a = tested on: OR10a; design: method as in earlier work; settings: DoOR database value, ref DoOR, cited from earlier work
[1] = HEK293, read-out: OR13a Average response (VUAA1-normalized), 1 μM VOC, 50 μM VUAA1 = 1, responses not exceeding 0.05 considered 0
[2] = HEK293, read-out: OR13a Average response (VUAA1-normalized), 10 μM VOC, 50 μM VUAA1 = 1, responses not exceeding 0.05 considered 0
[3] = HEK293, read-out: OR13a Average response (VUAA1-normalized), 100 μM VOC, 50 μM VUAA1 = 1, responses not exceeding 0.05 considered 0
[4] = HEK293, read-out: OR13a response (VUAA1-normalized response), VOC concentration 1 μM
[5] = HEK293, read-out: OR13a response (VUAA1-normalized response), VOC concentration 10 μM
[6] = HEK293, read-out: OR13a response (VUAA1-normalized response), VOC concentration 100 μM
[7] = ligand concentration 1 (unit not given), threshold 0.05, below shown as 0
[8] = ligand concentration 10 (unit not given), threshold 0.05, below shown as 0
[9] = ligand concentration 100 (unit not given), threshold 0.05, below shown as 0
[10] = concentration 1, normalized fluorescence change, values below 0.05 threshold given as 0
[11] = concentration 10, normalized fluorescence change, values below 0.05 threshold given as 0
[12] = concentration 100, normalized fluorescence change, values below 0.05 threshold given as 0

SMILES	activation at 1 µM (Drosophila OR13a; [1]) [%]	activation at 10 µM (Drosophila OR13a; [2]) [%]	activation at 100 µM (Drosophila OR13a; [3]) [%]	activation at 1 µM (Drosophila OR13a; [4]) [%]	activation at 10 µM (Drosophila OR13a; [5]) [%]	activation at 100 µM (Drosophila OR13a; [6]) [%]	DF norm AVERAGE OR13a (Drosophila OR13a; [7])	DF norm AVERAGE OR13a (Drosophila OR13a; [8])	DF norm AVERAGE OR13a (Drosophila OR13a; [9])	OR85b DoOR response (OR85b)	OR47a DoOR response (OR47a)	OR98a DoOR response (OR98a)	OR49b DoOR response (OR49b)	OR10a DoOR response (OR10a)	DF norm AVERAGE OR13a (Drosophila OR13a; [10])	DF norm AVERAGE OR13a (Drosophila OR13a; [11])	DF norm AVERAGE OR13a (Drosophila OR13a; [12])	also measured
CCCCCC(=O)OCC [ethyl hexanoate]	3.2	2.46	0	0	0	0	0	0	0	0.24	0.42	0.17	0.007	-0.012				
CC(=O)OCC(C)C [isobutyl acetate]	2	7	3.7	0	7	0	0	0.06695	0	0.39	0.58	0.67	0.006	0.35				
COC(=O)c1ccccc1 [methyl benzoate]	0	0	6				0	0	0.06097									OR13a response (VUAA1-normalized) at 1 μM (Drosophila OR13a; VOC concentration 1 μM): 0.00; OR13a response (VUAA1-normalized) at 10 μM (Drosophila OR13a; VOC concentration 10 μM): 0.00; OR13a response (VUAA1-normalized) at 100 μM (Drosophila OR13a; VOC concentration 100 μM): 0.06; OR85b DoOR response (OR85b; OR85b): 0.036; OR47a DoOR response (OR47a; OR47a): 0.09; OR98a DoOR response (OR98a; OR98a): 0.70; OR49b DoOR response (OR49b; OR49b): 0.035; OR10a DoOR response (OR10a; OR10a): 0.63
CC/C=C\CCO [E-3-hexenol]										0.75	0.065	0.44	0.057	0.04				OR13a response (VUAA1-normalized response) (Drosophila OR13a; VOC concentration 1 μM): 0.00; OR13a response (VUAA1-normalized response) (Drosophila OR13a; VOC concentration 10 μM): 0.00; OR13a response (VUAA1-normalized response) (Drosophila OR13a; VOC concentration 100 μM): 0.07
CCCCCO [1-pentanol]	0	1.6	0	0	0	0				0.51	0.17	0.23	0.09	0.034	0	0	0	
C=C1CCC2CC1C2(C)C (stereo not drawn) [beta-pinene]	8	0	3.25	8	0	0	0.08064	0	0	0.053	-0.021	-0.003	0.011	-0.005				
CC1=CCC2C(C1)C2(C)C (stereo not drawn) [3-carene]	0	0	0	0	0	0				-0.008	-0.002	-0.009	0.002	-0.005	0	0	0	
CCCCCCCCC=O [nonanal]	0	0	0				0	0	0									OR13a response (VUAA1-normalized) at 1 μM (Drosophila OR13a; VOC concentration 1 μM): 0.00; OR13a response (VUAA1-normalized) at 10 μM (Drosophila OR13a; VOC concentration 10 μM): 0.00; OR13a response (VUAA1-normalized) at 100 μM (Drosophila OR13a; VOC concentration 100 μM): 0.00; OR85b DoOR response (OR85b; OR85b): 0.091; OR98a DoOR response (OR98a; OR98a): 0.085; OR49b DoOR response (OR49b; OR49b): 0.03; OR10a DoOR response (OR10a; OR10a): 0.05
Cc1cccc(O)c1 [3-methylphenol]	0	0	1.35	0	0	0							0.54		0	0	0	
CCCCOC(=O)CC [butyl propanoate]	0	0	0	0	0	0	0	0	0		0.38			0.011				
